{"source": "patent US6358885B1", "about": "“Substituted phenylheterocyclic herbicides” (Mississippi State University, priority 1992, dated 2002)", "test_in_all_cases": "Test B preemergence/postemergence greenhouse plant response rating 0 to 10", "key": {"barley": {"system": "barley", "type": "in vivo, Hordeum vulgare", "conditions": "for Plant response rating, Barley: 0 to 10 scale", "excerpt": "(§1) Seeds of barley (Hordeum vulgare), barnyardgrass (Echinochloa crus-galli), bedstraw (Galium aparine), blackgrass (Alopecurus myosuroides), […] (Bromus secalinus), chickweed (Stellaria media), cocklebur (Xanthium pensylvanicum), corn (Zea mays), cotton (Gossypium hirsutum), crabgrass (Digitaria spp.), giant foxtail (Setaria faberii), lambsquarters (Chenopodium album), morningglory (Ipomoea hederacea), rape (Brassica napus), rice (Oryza sativa), sorghum (Sorghum bicolor), soybean (Glycine max), sugar beet (Beta vulgaris), velvetleaf (Abutilon theophrasti), wheat (Triticum aestivum), wild buckwheat (Polygonum convolvulus), and wild oat (Avena fatua) and purple nutsedge. (Cyperus rotundus) tubers were planted and treated preemergence with test chemicals dissolved in a non-phytotoxic solvent. At the same time, these crop and weed species were also treated with postemergence applications of test chemicals. Plants ranged in height from two to eighteen cm (one to four leaf stage) for postemergence treatments. Treated plants and controls were maintained in a greenhouse for twelve to sixteen days, after which all species were compared to controls and visually evaluated. […] A dash (-) response means no test result."}, "barnyardgrass": {"system": "barnyardgrass", "type": "in vivo, Echinochloa crus-galli", "conditions": "for Plant response rating, Barnyardgrass: 0 to 10 scale", "excerpt": "as §1"}, "bedstraw": {"system": "bedstraw", "type": "in vivo, Galium aparine", "conditions": "for Plant response rating, Bedstraw: 0 to 10 scale", "excerpt": "as §1"}, "blackgrass": {"system": "blackgrass", "type": "in vivo, Alopecurus myosuroides", "conditions": "for Plant response rating, Blackgrass: 0 to 10 scale", "excerpt": "as §1"}, "cheatgrass": {"system": "cheatgrass", "type": "in vivo, Bromus secalinus", "conditions": "for Plant response rating, Cheatgrass: 0 to 10 scale", "excerpt": "as §1"}, "chickweed": {"system": "chickweed", "type": "in vivo, Stellaria media", "conditions": "for Plant response rating, Chickweed: 0 to 10 scale", "excerpt": "as §1"}, "cocklebur": {"system": "cocklebur", "type": "in vivo, Xanthium pensylvanicum", "conditions": "for Plant response rating, Cocklebur: 0 to 10 scale", "excerpt": "as §1"}, "corn": {"system": "corn", "type": "in vivo, Zea mays", "conditions": "for Plant response rating, Corn: 0 to 10 scale", "excerpt": "as §1"}, "cotton": {"system": "cotton", "type": "in vivo, Gossypium hirsutum", "conditions": "for Plant response rating, Cotton: 0 to 10 scale", "excerpt": "as §1"}, "crabgrass": {"system": "crabgrass", "type": "in vivo, Digitaria spp.", "conditions": "for Plant response rating, Crabgrass: 0 to 10 scale", "excerpt": "as §1"}, "giant foxtail": {"system": "giant foxtail", "type": "in vivo, Setaria faberii", "conditions": "for Plant response rating, Giant foxtail: 0 to 10 scale", "excerpt": "as §1"}, "lambsquarters": {"system": "lambsquarters", "type": "in vivo, Chenopodium album", "conditions": "Rate 50 g/ha, 0 to 10 scale", "excerpt": "as §1"}}}
{"compound": "CON=C(C)c1cc(-c2nn3c(c2Cl)CCCC3)c(F)cc1Cl", "note": "[Compound 82]", "values": [{"measurement": "Plant response rating, Barley", "setting": "barley; POSTEMERGENCE, Rate 50 g/ha", "result": 2}, {"measurement": "Plant response rating, Barley", "setting": "barley; PREEMERGENCE, Rate 50 g/ha", "result": 0}, {"measurement": "Plant response rating (0 to 10 scale), Barley", "setting": "barley; PREEMERGENCE, Rate 200 g/ha", "result": 0}, {"measurement": "Plant response rating, Barley", "setting": "barley; Rate 200 g/ha, POSTEMERGENCE", "result": 3}, {"measurement": "Plant response rating, Barnyardgrass", "setting": "barnyardgrass; POSTEMERGENCE, Rate 50 g/ha", "result": 6}, {"measurement": "Plant response rating, Barnyardgrass", "setting": "barnyardgrass; PREEMERGENCE, Rate 50 g/ha", "result": 2}, {"measurement": "Plant response rating (0 to 10 scale), Barnyardgrass", "setting": "barnyardgrass; PREEMERGENCE, Rate 200 g/ha", "result": 6}, {"measurement": "Plant response rating, Barnyardgrass", "setting": "barnyardgrass; Rate 200 g/ha, POSTEMERGENCE", "result": 7}, {"measurement": "Plant response rating, Bedstraw", "setting": "bedstraw; POSTEMERGENCE, Rate 50 g/ha", "result": 8}, {"measurement": "Plant response rating, Bedstraw", "setting": "bedstraw; PREEMERGENCE, Rate 50 g/ha", "result": 0}, {"measurement": "Plant response rating (0 to 10 scale), Bedstraw", "setting": "bedstraw; PREEMERGENCE, Rate 200 g/ha", "result": 9}, {"measurement": "Plant response rating, Bedstraw", "setting": "bedstraw; Rate 200 g/ha, POSTEMERGENCE", "result": 9}, {"measurement": "Plant response rating, Blackgrass", "setting": "blackgrass; POSTEMERGENCE, Rate 50 g/ha", "result": 2}, {"measurement": "Plant response rating, Blackgrass", "setting": "blackgrass; PREEMERGENCE, Rate 50 g/ha", "result": 0}, {"measurement": "Plant response rating (0 to 10 scale), Blackgrass", "setting": "blackgrass; PREEMERGENCE, Rate 200 g/ha", "result": 4}, {"measurement": "Plant response rating, Blackgrass", "setting": "blackgrass; Rate 200 g/ha, POSTEMERGENCE", "result": 3}, {"measurement": "Plant response rating, Cheatgrass", "setting": "cheatgrass; POSTEMERGENCE, Rate 50 g/ha", "result": 2}, {"measurement": "Plant response rating, Cheatgrass", "setting": "cheatgrass; PREEMERGENCE, Rate 50 g/ha", "result": 2}, {"measurement": "Plant response rating (0 to 10 scale), Cheatgrass", "setting": "cheatgrass; PREEMERGENCE, Rate 200 g/ha", "result": 6}, {"measurement": "Plant response rating, Cheatgrass", "setting": "cheatgrass; Rate 200 g/ha, POSTEMERGENCE", "result": 3}, {"measurement": "Plant response rating, Chickweed", "setting": "chickweed; POSTEMERGENCE, Rate 50 g/ha", "result": 2}, {"measurement": "Plant response rating, Chickweed", "setting": "chickweed; PREEMERGENCE, Rate 50 g/ha", "result": 6}, {"measurement": "Plant response rating (0 to 10 scale), Chickweed", "setting": "chickweed; PREEMERGENCE, Rate 200 g/ha", "result": 0}, {"measurement": "Plant response rating, Chickweed", "setting": "chickweed; Rate 200 g/ha, POSTEMERGENCE", "result": 3}, {"measurement": "Plant response rating, Cocklebur", "setting": "cocklebur; POSTEMERGENCE, Rate 50 g/ha", "result": 7}, {"measurement": "Plant response rating, Cocklebur", "setting": "cocklebur; PREEMERGENCE, Rate 50 g/ha", "result": 0}, {"measurement": "Plant response rating (0 to 10 scale), Cocklebur", "setting": "cocklebur; PREEMERGENCE, Rate 200 g/ha", "result": 0}, {"measurement": "Plant response rating, Cocklebur", "setting": "cocklebur; Rate 200 g/ha, POSTEMERGENCE", "result": 8}, {"measurement": "Plant response rating, Corn", "setting": "corn; POSTEMERGENCE, Rate 50 g/ha", "result": 3}, {"measurement": "Plant response rating, Corn", "setting": "corn; PREEMERGENCE, Rate 50 g/ha", "result": 0}, {"measurement": "Plant response rating (0 to 10 scale), Corn", "setting": "corn; PREEMERGENCE, Rate 200 g/ha", "result": 3}, {"measurement": "Plant response rating, Corn", "setting": "corn; Rate 200 g/ha, POSTEMERGENCE", "result": 4}, {"measurement": "Plant response rating, Cotton", "setting": "cotton; POSTEMERGENCE, Rate 50 g/ha", "result": 10}, {"measurement": "Plant response rating, Cotton", "setting": "cotton; PREEMERGENCE, Rate 50 g/ha", "result": 0}, {"measurement": "Plant response rating (0 to 10 scale), Cotton", "setting": "cotton; PREEMERGENCE, Rate 200 g/ha", "result": 1}, {"measurement": "Plant response rating, Cotton", "setting": "cotton; Rate 200 g/ha, POSTEMERGENCE", "result": 10}, {"measurement": "Plant response rating, Crabgrass", "setting": "crabgrass; POSTEMERGENCE, Rate 50 g/ha", "result": 3}, {"measurement": "Plant response rating, Crabgrass", "setting": "crabgrass; PREEMERGENCE, Rate 50 g/ha", "result": 3}, {"measurement": "Plant response rating (0 to 10 scale), Crabgrass", "setting": "crabgrass; PREEMERGENCE, Rate 200 g/ha", "result": 7}, {"measurement": "Plant response rating, Crabgrass", "setting": "crabgrass; Rate 200 g/ha, POSTEMERGENCE", "result": 4}, {"measurement": "Plant response rating, Giant foxtail", "setting": "giant foxtail; POSTEMERGENCE, Rate 50 g/ha", "result": 4}, {"measurement": "Plant response rating, Giant foxtail", "setting": "giant foxtail; PREEMERGENCE, Rate 50 g/ha", "result": 3}, {"measurement": "Plant response rating (0 to 10 scale), Giant foxtail", "setting": "giant foxtail; PREEMERGENCE, Rate 200 g/ha", "result": 6}, {"measurement": "Plant response rating, Giant foxtail", "setting": "giant foxtail; Rate 200 g/ha, POSTEMERGENCE", "result": 5}, {"measurement": "Plant response rating, Lambsquarter", "setting": "lambsquarters; POSTEMERGENCE", "result": 7}, {"measurement": "Plant response rating, Lambsquarter", "setting": "lambsquarters; PREEMERGENCE", "result": 10}]}
